Source: patent publication US10561638B2, “Methods for treating dependence” (Biotie Therapies, Inc., priority 2007, dated 2020)
“Also recorded” adds a separate entry of the source.

Legend:
rats = experiment: Chronic (10 day) dosing behavioral tests in rats; conditions: for acoustic startle reactivity: 50 mg/kg
Protocol: The effects of chronic dosing of nepicastat in rats were examined. Between three and thirteen days prior to the first dosing day the rats were placed inside the startle apparatus and after a five minute acclimation period they were presented with a 118 dB noise burst on average once a minute (a variable inter-trial interval ranging between 30 and 90 seconds will be used) for 20 minutes. The startle responses were measured and a mean for the last twenty startle response was calculated for each rat.
The following behavioral tests were administered during and after chronic dosing; body core temperature, motor activity, acoustic startle reactivity, and pre-pulse inhibition of acoustic startle.
The animals were tested in an enclosed room with a white noise generator running Motor activity tests were conducted immediately after the body core temperature reading taken on dosing day ten (about 3 hours and 35 minutes after the morning daily dose of nepicastat, and SKF-102698, and 20 minutes prior to the daily administration of clonidine and d-amphetamine on dosing day ten). Motor activity tests were run for one hour. A diagnostic program was run on each of the motor activity chambers prior to each test session to assure that the photo beams and light sensors were operating properly. […] D-amphetamine was used as the positive control for this assay.
Rat body core temperatures were obtained by inserting the rectal probe 2 cm into the colon of each rat. Each rat's body core temperature was measured three times and the average of the three reading was calculated. Body core temperature readings were obtained immediately prior to the ten day chronic dosing schedule (to obtain a baseline), and three and half hour after the morning daily dose of nepicastat, and SKF-102698, and 15 minutes prior to the daily administration of clonidine and d-amphetamine, on dosing days one, five and ten. […] Both clonidine (an alpha2 agonist), and d-amphetamine (a dopamine releaser) were used as the positive controls for this assay.
Acoustic startle reactivity (a series of muscle contractions elicited by an intense burst of noise with a rapid onset), and pre-pulse inhibition (sensorimotor gating measured by analyzing any decrease in startle reactivity which occurs when a startling stimulus is immediately preceded by a non startling stimulus) were both measured in eight SR-Lab (San Diego Instruments, San Diego, Calif.) test stations. The rats were placed individually in a Plexiglas cylinder (10 cm diameter) which was housed in a ventilated sound-attenuating enclosure. Acoustic noise bursts (a broad band noise with a rise time and fall time of 1 msec) were presented via a speaker mounted 30 cm above the animal. Also, these speakers produced a 68 dB level of background noise throughout all test sessions. A piezoelectric accelerometer attached below the plexiglass cylinder transduced the subject's movement into a voltage which was then rectified and digitized (on a scale from 0 to 4095) by a PC computer equipped with SR-Lab software and interface assembly. A decibel meter was used to calibrate the speakers in each of the eight test station to ±1% of the mean. Additionally, a SR-Lab calibrating instrument was used to calibrate each of the eight startle detection apparatuses to ±2% of the mean. Startle reactivity and pre-pulse inhibition tests were run concurrently immediately alter the motor activity test (about 4 hours and 40 minutes after the morning daily injection of nepicastat, and SKF-102698, and 10 minutes after a supplemental administration of clonidine and d-amphetamine on dosing day ten).

[1] = tested on: conscious, restrained SHRs; experiment: Hemodynamic study in conscious, restrained SHRs; assay type: in vivo, spontaneously hypertensive rats
Protocol: The in vivo hemodynamic activity of nepicastat was further assessed in conscious, restrained SHRs, a model having high sympathetic drive to cardiovascular tissues. Hemodynamic study in SHRs. Male SHRs (15-16 week old) were used in the study. The animals were lightly anesthetized with ether and the left femoral artery and vein were catheterized for measurement of blood pressure and drug administration, respectively. The animals were placed in restrainers and allowed to recover for 30-40 min. After obtaining baseline measurements, the animals were treated, orally, with either vehicle or the appropriate dose of nepicastat and hemodynamic parameters were continuously recorded for 4 h. The animals were then anesthetized with pentobarbital, placed on a heating pad (37° C.) and ventilated with a Harvard rodent ventilator. After administration of atropine (1 mg/kg, iv) and tubocurarine (1 mg/kg, iv), the animals were pithed through the orbit of the eye with a stainless steel rod. The […] rod was stimulated electrically with 1 ms pulses of 80V at different frequencies (0.15, 0.45, 1.5, 5, 15 Hz) to obtain frequency-pressor response curves. […] The animals were placed in restrainers and allowed to recover for 30-40 minutes. After obtaining baseline measurements, the animals were treated, orally, with either vehicle or the appropriate dose of nepicastat and hemodynamic parameters were continuously recorded for 4 h.

[2] = tested on: left ventricular [3H] CGP-12177 binding sites; experiment: [3H] CGP-12177 saturation binding in left ventricle membranes of treated dogs; set-up: species or system beagle dogs; conditions: 10 mg/kg/day for 4.5 days
Protocol: Ventricles were homogenized in 50 mM Tris-HCl, 5 mM Na2EDTA buffer (pH 7.4 at 4° C.) using a Polytron P-10 tissue disrupter (setting 10, 2×15 second bursts). Homogenates were centrifuged at 500×g for 10 minutes and the supernatants stored on ice. The pellets were washed by resuspension and centrifugation at 500×g and the supernatants combined. The combined supernatants were centrifuged at 48,000×g for 20 minutes. The pellets were washed by resuspension and centrifugation once in homogenizing buffer and twice in 50 mM Tris-HCl, 0.5 mM EDTA buffer (pH 7.4 at 4° C.). Membranes were stored at −70° C. until required. Saturation experiments were conducted using [^3H] CGP-12177 in buffer containing 50 mM Tris-HCl, 0.5 mM EDTA (pH 7.4 at 32° C.). Non-specific binding was defined by 10 μM isoproterenol. Total bound, non-specific bound and total count tubes were set up for eight concentrations of [^3H] […] Aquasol scintillation fluid was added to each vial and radioactivity determined by liquid scintillation counting. Saturation binding isotherms were analyzed after first converting total ligand concentrations to free ligand concentrations (total−bound=free). […] Tissue catecholamine levels were analyzed by comparing nepicastat-treated groups with the placebo (control) treated groups. […] Additionally, a linear orthogonal contrast was calculated for all three doses within the context of a one-way ANOVA. […]

Row | SMILES | pre-pulse inhibition (rats; dosing day ten) | locomotor activity vs vehicle (rats; dosing day ten, nepicastat 5, 15, 50, SKF-102698 50 mg/kg bid, clonidine 20 μg/kg, d-amphetamine 2 mg/kg bid) | pre-pulse inhibition (rats; rat, in vivo) | acoustic startle reactivity (rats; rat, in vivo) | decrease in heart rate ([1]; 10 mg/kg) | maximal decrease in mean blood pressure ([1]; 10 mg/kg po) | reduction in mean blood pressure relative to vehicle control ([1]; 10 mg/kg po) | decrease in blood pressure 4 hours after dosing ([1]; 10 mg/kg, SHRs) | decrease in heart rate ([1]; 30 mg/kg) | effect on mean arterial pressure ([1]; 0.3-30 mg/kg po, up to 4 h, hydrochloride) | effect on heart rate ([1]; 10 and 30 mg/kg po) | duration of antihypertensive effects ([1]; acute oral administration) | time to plateau of the antihypertensive response ([1]; po) | body core temperature (rats; rat, in vivo) | left ventricular binding, treated vs vehicle group [2]
1 | Fc1cc(F)cc(Cn2cc[nH]c2=S)c1 [SKF-102698, reference compound] | Neither d-amphetamine nor SKF-102698 was significantly different | significantly lower locomotor activity | marginally higher percent prepulse inhibition | significantly lower startle response compared to cyclodextrin | – | – | – | – | – | – | – | – | – | – | –
2 | Cl.NCc1c[nH]c(=S)n1[C@H]1CCc2c(F)cc(F)cc2C1 [nepicastat, (S)-5-Aminomethyl-1-(5,7-difluoro-1,2,3,4-tetrahydronaphth-2-yl)-2,3-dihydro-2-thioxo-1H-imidazole hydrochloride] | – | – | None of the nepicastat dose groups were significantly different | significantly higher startle response than the SKF-102698 | 9.8% | 53±4 mmHg | 33% | −46 mmHg | 10.5% | significant (p<0.05) lowering of mean arterial pressure; also recorded: significant antihypertensive effect | significantly reduced heart rate | > 4 h | 3 to 4 h | unaffected | no difference
